Where “and” joins values, the source holds several entries; their conditions need not be identical. Equal values may be shown once. Read-outs that look alike come from different tables or passages of the source.
Tests used:
[1] = Single dose pharmacokinetic study in cynomolgus monkey; format: in vivo
Experimental: Pharmacokinetic studies were conducted in male beagle dogs and male cynomolgus monkeys at SRI International, Menlo Park, CA. General procedures for animal care and housing were in accordance with the National Research Council (NRC) Guide for the Care and Use of Laboratory Animals (1996) and the Animal Welfare Standards incorporated in 9 CFR Part 3, 1991 and complied with guidelines set forth by the ARVO Animal Statement for the Use of Animals in Ophthalmic and Vision Research. During the course of the PK experiments, cynomolgus monkeys were individually housed in stainless steel primary enclosures in an AAALAC-accredited facility. Animals were fed a commercial monkey chow, and supplemental food was provided (fresh fruits, vegetables, seeds, and nuts). Reverse osmosis-purified drinking water was available at all times. Cynomolgus monkeys were maintained on a 12:12 hour light:dark cycle at the 64–84°F temperature and 30–70% humidity. Monkeys had access to enrichment opportunities (grooming devices, foraging devices, activity panels and mirrors) and were provided auditory stimuli and human interaction enrichment throughout the study. Blood samples were collected by venipuncture of a peripheral vein. Animals were acclimated to the squeeze back mechanism in their home cage by repeated, short periods of restraint during general husbandry procedures for at least 2 weeks prior to dosing. Animal were not removed from their cages for collection, and no anesthesia/analgesic agents were used for blood collection. […] For PK experiments, beagle dogs were individually housed in enclosed run (≥ 4 ft x 6 ft). Dogs were exposed to their daily ration of food, Harlan Teklad 2025C Certified Global 25% Protein Dog Diet. Water was provided from the public water supply (municipal tap water) ad libitum. Dogs were maintained on a 12:12 hour light:dark cycle at the 72–73°F temperature and 40–71% humidity. Every effort was made to minimize, if not eliminate, pain and suffering in all animals in this study. No restraining devices were used in blood collecting procedures. Dogs were gentle hand-held to restrain by trained technicians with the dogs foreleg extended for sample collection of blood from cephalic vein. Animals were awake during blood sample collection with no anesthesia/analgesic agents used, and positive reinforcement by the technician was provided following collection. […] All dogs were released back to the colony after the study was completed. Male beagle dogs and male cynomolgus monkey received a single i.v. dose of a test compound at 0.5 mg kg^−1 (dog) and 1 mg kg^−1 (monkey) or a single p.o. dose of a test compound of at 2 mg kg^−1 (dog) and 5 mg kg^−1 (monkey). The number of animals that was used in PK experiments is 3 per study group. Intravenous administration vehicle was 3% DMA/45% PEG300/12% ethanol/40% sterile water; p.o. vehicle was 2% Tween 80 in 0.9% saline. […] Blood samples were processed to plasma. Following protein extraction with acetonitrile, compound concentrations in plasma were measured by LC-MS/MS. The plasma drug level data were analyzed using WinNonlin software package; Model 201 (for i.v. bolus administration);was used for the analysis of i.v. data, and Model 200 (for extravascular administration) was used for the analysis of the p.o. data. Aliquots of pre-dose plasma samples, as well as aliquots of plasma PK samples, were used for the analysis of the plasmabiomarker, RBP4.
Administration to Non-Human Primates
II. MATERIALS AND METHODS

[2] = parameters: method as in PMID 26181715; conditions: rat liver microsomes; cited from earlier work
serum RBP4 = system: serum RBP4; parameters: method as in PMID 29871924; conditions: mice; cited from earlier work
[3] = male, cynomolgus monkey, plasma, po, Cyno, 5.0 mg kg^−1 p.o., mean ± SD, n=3

concentration at 4 hr ([1]; male, cynomolgus monkey, plasma, po, 5 mg/kg, non-human primate, po 5 mg/kg, 4 hr, read-out: Plasma level, Individual animals): 26600 ng/mL | concentration at 4 hr ([1]; male, cynomolgus monkey, plasma, po, 5 mg/kg, non-human primate, po 5 mg/kg, 4 hr, read-out: Plasma level, Mean): 27200 ng/mL | concentration at 6 hr ([1]; male, cynomolgus monkey, plasma, po, 5 mg/kg, non-human primate, po 5 mg/kg, 6 hr, read-out: Plasma level, Individual animals): 26700 ng/mL | concentration at 6 hr ([1]; male, cynomolgus monkey, plasma, po, 5 mg/kg, non-human primate, po 5 mg/kg, 6 hr, read-out: Plasma level, Mean): 26600 ng/mL | concentration at 8 h ([1]; male, cynomolgus monkey, plasma, po, 5 mg/kg, non-human primate, po 5 mg/kg, 8 hr, read-out: Plasma level, Individual animals): 23900 ng/mL | concentration at 8 h ([1]; male, cynomolgus monkey, plasma, po, 5 mg/kg, non-human primate, po 5 mg/kg, 8 hr, read-out: Plasma level, Mean): 23900 ng/mL | concentration at 12 h ([1]; male, cynomolgus monkey, plasma, po, 5 mg/kg, non-human primate, po 5 mg/kg, 12 hr, read-out: Plasma level, Individual animals): 16700 ng/mL | concentration at 12 h ([1]; male, cynomolgus monkey, plasma, po, 5 mg/kg, non-human primate, po 5 mg/kg, 12 hr, read-out: Plasma level, Mean): 18600 ng/mL | concentration at 24 h ([1]; male, cynomolgus monkey, plasma, po, 5 mg/kg, non-human primate, po 5 mg/kg, 24 hr, read-out: Plasma level, Individual animals): 12700 ng/mL | concentration at 24 h ([1]; male, cynomolgus monkey, plasma, po, 5 mg/kg, non-human primate, po 5 mg/kg, 24 hr, read-out: Plasma level, Mean): 12500 ng/mL | concentration at 36 h ([1]; male, cynomolgus monkey, plasma, po, 5 mg/kg, non-human primate, po 5 mg/kg, 36 hr, read-out: Plasma level, Individual animals): 6800 ng/mL | concentration at 36 h ([1]; male, cynomolgus monkey, plasma, po, 5 mg/kg, non-human primate, po 5 mg/kg, 36 hr, read-out: Plasma level, Mean): 7190 ng/mL | concentration at 48 h ([1]; male, cynomolgus monkey, plasma, po, 5 mg/kg, non-human primate, po 5 mg/kg, 48 hr, read-out: Plasma level, Mean): 5380 ng/mL | AUC(0-t) [1, 3]: 676 ± 129 µg·h/mL | Tmax [1, 3]: 1.67 ± 0.58 h | half-life ([1]; male, cynomolgus monkey, plasma, po, Cyno, 5.0 mg kg^−1 p.o., mean ± SD, n=3, read-out: T1/2, apparent terminal half-life (converted)): 17.8 ± 4.2 h | Plasma level, Individual animals ([1]; non-human primate, iv 1.0 mg/kg, 0.0083 hr, 1 mg/kg): 11200 ng/mL and 12100 ng/mL | Plasma level, Individual animals ([1]; non-human primate, iv 1.0 mg/kg, 0.25 hr, 1 mg/kg): 10900 ng/mL and 10800 ng/mL | Plasma level, Individual animals ([1]; non-human primate, iv 1.0 mg/kg, 0.5 hr, 1 mg/kg): 10000 ng/mL and 9400 ng/mL | Plasma level, Individual animals ([1]; non-human primate, iv 1.0 mg/kg, 1 hr, 1 mg/kg): 8350 ng/mL and 9370 ng/mL | Plasma level, Individual animals ([1]; non-human primate, iv 1.0 mg/kg, 2 hr, 1 mg/kg): 7340 ng/mL and 8000 ng/mL | Plasma level, Individual animals ([1]; non-human primate, iv 1.0 mg/kg, 4 hr, 1 mg/kg): 6800 ng/mL and 7000 ng/mL | Plasma level, Individual animals ([1]; non-human primate, iv 1.0 mg/kg, 8 hr, 1 mg/kg): 5290 ng/mL and 6220 ng/mL | Plasma level, Individual animals ([1]; non-human primate, iv 1.0 mg/kg, 12 hr, 1 mg/kg): 3860 ng/mL and 6000 ng/mL | Plasma level, Individual animals ([1]; non-human primate, iv 1.0 mg/kg, 24 hr, 1 mg/kg): 2510 ng/mL and 3430 ng/mL | Plasma level, Individual animals ([1]; non-human primate, iv 1.0 mg/kg, 36 hr, 1 mg/kg): 1610 ng/mL and 1090 ng/mL and 2300 ng/mL | Plasma level, Individual animals ([1]; non-human primate, iv 1.0 mg/kg, 48 hr, 1 mg/kg): 962 ng/mL and 671 ng/mL and 1530 ng/mL | Plasma level, Mean ([1]; non-human primate, iv 1.0 mg/kg, Predose): 196 ng/mL | Plasma level, Individual animals ([1]; non-human primate, iv 1.0 mg/kg, Predose, 1 mg/kg): 132 ng/mL and 64.6 ng/mL and 392 ng/mL | Plasma level, Individual animals ([1]; non-human primate, po 5 mg/kg, 0.25 hr, 5 mg/kg): 9420 ng/mL and 14200 ng/mL | Plasma level, Individual animals ([1]; non-human primate, po 5 mg/kg, 0.5 hr, 5 mg/kg): 15200 ng/mL and 23400 ng/mL | Plasma level, Individual animals ([1]; non-human primate, po 5 mg/kg, 1 hr, 5 mg/kg): 31400 ng/mL and 33300 ng/mL | Plasma level, Individual animals ([1]; non-human primate, po 5 mg/kg, 2 hr, 5 mg/kg): 29300 ng/mL and 32000 ng/mL | Plasma level, Individual animals ([1]; non-human primate, po 5 mg/kg, 4 hr, 5 mg/kg): 25800 ng/mL and 29100 ng/mL | Plasma level, Individual animals ([1]; non-human primate, po 5 mg/kg, 6 hr, 5 mg/kg): 22400 ng/mL and 30600 ng/mL | Plasma level, Individual animals ([1]; non-human primate, po 5 mg/kg, 8 hr, 5 mg/kg): 21700 ng/mL and 26200 ng/mL | Plasma level, Individual animals ([1]; non-human primate, po 5 mg/kg, 12 hr, 5 mg/kg): 16100 ng/mL and 22900 ng/mL | Plasma level, Individual animals ([1]; non-human primate, po 5 mg/kg, 24 hr, 5 mg/kg): 9590 ng/mL and 15100 ng/mL | Plasma level, Individual animals ([1]; non-human primate, po 5 mg/kg, 36 hr, 5 mg/kg): 5230 ng/mL and 9530 ng/mL | Plasma level, Individual animals ([1]; non-human primate, po 5 mg/kg, 48 hr, 5 mg/kg): 4550 ng/mL and 2950 ng/mL and 8650 ng/mL
Compound: Cc1cc(C(=O)O)nc(N2C[C@H]3C[C@@H](c4ccccc4C(F)(F)F)C[C@H]3C2)n1 [BPN-14136]
stability in liver microsomes, % remaining at 30 min [2]: > 90% | serum RBP4 lowering (serum RBP4): 90%

From paper PMC6980506, “Comparative pharmacokinetics and pharmacodynamics of the advanced Retinol-Binding Protein 4 antagonist in dog and cynomolgus monkey” (PLoS ONE, 2020)
